Experimental data as given in patent US20230085945A1, “ORTHOGONAL SAFETY SWITCHES TO ELIMINATE GENETICALLY ENGINEERED CELLS” (The Board of Trustees of the Leland Stanford Junior …, priority 2020, published 2023).

How the values were obtained:
[1] = system: NANOG-YFP^+ hPSCs mixed with hPSC-derived sclerotome cells; test: Ablation of undifferentiated hPSCs in a heterogeneous cell population (hPSCs spiked into day-5 sclerotome cells); type: cell-based, human
Protocol: FIG. 3: Implementation of the NANOG^iCasp9-YFP safety switch. A) Schema depicting how drug AP20187 induces dimerization of Caspase9 in undifferentiated NANOG^iCasp9-YFP hESCs, subsequently triggering cell death (top left). NANOG^iCasp9-YFP hESCs were treated for 24 hours with increasing concentrations of AP20187. AP20187 was withdrawn, and cultures were further grown in mTeSR1 to allow any surviving hESCs to grow; any surviving colonies were counted 1 week later (top right). Alkaline phosphatase staining of whole wells of a 12-well plate after 24-hour treatment with AP20187 (bottom). […] Bioluminescent imaging of mice occurred weekly for 5 weeks with no transplant control (NTC) animals included for relative luminescence normalization. Total flux (photons/sec) was measured for each animal and averaged. […] The percentage of surviving cells was calculated relative to untreated controls. […]
Flow cytometric quantification of viable cells—NANOG^iCasp9-YFP hESCs were dissociated into single cells with Accutase and 1×10^6 cells were plated per well in a 6-well plate pre-coated with Matrigel. […] Subsequently, to quantify the percentage of surviving cells, the cultures were dissociated with TrypLE Express. […] YFP^+ (i.e., NANOG^+) cells were analyzed (Beckman Coulter CytoFlex Analyzer) to count live cells for both untreated and AP20187-treated groups. […]

[2] = system: NANOG^iCasp9-YFP;ACTB^HSV-TK-mPlum hPSCs transplanted subcutaneously; test: Teratoma formation after AP20 pre-treatment of dual-safeguard hPSCs; type: in vivo, NOD-SCID Il2rg^−/− mice; details: pre-treatment with 1 nM AP20 before transplantation
Protocol: FIG. 5: Implementation of the ACTB^TK-mPlum safety switch. A) NANOG^iCasp9-YFP;ACTB^TK-mPlum hESCs were treated with ganciclovir (or left untreated) for 24 hours, and subsequently ganciclovir was withdrawn and hESCs were cultured for 1 week in mTeSR1 to detect any surviving cells and to allow them to regrow. […] N.D.=not detected. B) NANOG^iCasp9-YFP;ACTB^TK-mPlum hESCs were differentiated into day 6 liver, sclerotome and neural progenitors and treated with ganciclovir at the indicated doses for the last 24 hours of differentiation. Cell survival was analyzed by counting at day 6 of differentiation. C) 10^6 NANOG^iCasp9-YFP; ACTB^TK-mPlum hESCs engineered to express CAG-AkaLuciferase were treated with control media or 1 nM AP20187 for 24 hours, and then subcutaneously transplanted into the right and left dorsal flanks of NOD-SCID Il2rg^−/− mice (10^6 cells per flank). […] Total flux (photons/sec) was measured for each animal and were averaged.
In vivo teratoma formation. […] Teratoma growth was monitored throughout the duration of the experiment via visual inspection and bioluminescent imaging.
Bioluminescent imaging. […] Subsequent image analysis was done in Aura with regions of interest (ROIs) drawn for each mouse to calculate Total Flux (photons/sec) in order to quantify teratoma growth over time.

CC[C@H](C(=O)N1CCCC[C@H]1C(=O)O[C@H](CCc1ccc(OC)c(OC)c1)c1cccc(OCC(=O)NCC(CNC(=O)COc2cccc([C@@H](CCc3ccc(OC)c(OC)c3)OC(=O)[C@@H]3CCCCN3C(=O)[C@@H](CC)c3cc(OC)c(OC)c(OC)c3)c2)CN(C)C)c1)c1cc(OC)c(OC)c(OC)c1 [AP20]
decrease in NANOG-YFP^+ cells ([1]; 10% undifferentiated hPSCs in day-5 sclerotome progenitors, AP20 for last 24 hours): > 10 fold
colony formation of surviving FACS-purified NANOG-YFP^+ cells ([1]; continued culture in hPSC media after AP20): did not form colonies
teratoma formation in vivo [2]: prevented them from forming teratomas in vivo
